Source: patent publication US9464049B2, “Indole-carboxamides” (Hoffmann-La Roche Inc., priority 2013, dated 2016)

What was measured:
[1] = test system: human embryonic stem cell derived neural stem cells (NSCs); assay: Neural stem cell proliferation assay (neurogenesis assay, ATP levels by CellTiterGlo); assay type: cell-based; conditions: Homo sapiens, Neural stem cell, 96 h; compound concentration at which 150% activity of control (100%) is reached; NSC proliferation by ATP (CellTiterGlo) after 4 days incubation; dose response 8 μM to 8 nM
Description: Neural Stem Cell Proliferation Assay
Neurogenic properties of small molecules are determined based on the proliferation of human embryonic stem cell derived neural stem cells (NSCs) which were derived via a dual smad inhibition as previously described (Chambers, S. M., et al., Highly efficient neural conversion of human ES and iPS cells by dual inhibition of SMAD signaling, Nature biotechnology, 2009. 27(3): p. 275-80.)
Compounds respond is measured by the increase in cells based on ATP levels (Promega:CellTiterGlo®) after an incubation period of 4 days.
NSCs are thawed and expanded over 3 passages. On the 14th day, NSCs are seeded in Polyornithin/Laminin coated 384 well plates at a cell density of 21,000 cells/cm^2 in a media volume of 38 μl.
4 hours after cell seeding, compound solutions are added at a volume of 2 μl. Stock solutions of the compounds (water, 5% DMSO) are diluted to obtain a dose response (11 points, dilution factor is 2), ranging from 8 μM to 8 nM. Controls are run to consistently determine the neurogenic properties of the cells: • Negative (neutral) control is cell culture Media (final DMSO concentration: 0.25%). • Positive controls are: • 1. cell culture Media+100 ng/ml FGF2 (final DMSO concentration: 0.1%) • 2. cell culture Media+20 ng/ml EGF (final DMSO concentration: 0.1%) • 3. cell culture Media+100 ng/ml Wnt3a (final DMSO concentration: 0.1%)
After 4 days incubation at 37° C., 5% CO2, the amount of ATP per well is quantified. The ATP concentration is proportional to the cell number. ATP is quantified by using the Promega CellTiterGlo® kit. The CellTiterGlo® reagents contain a cell lysis buffer, a thermo stable luciferase (UltraGlo™ recombinant luciferase), magnesium and luciferin. Luciferin reacts with ATP producing oxyluciferin, AMP and light. The luminescence signal is proportional to the ATP content.
The value of negative (neutral) control is determined for each assay plate by taking the average of 16 negative control wells. The neurogenic compound response is calculated for each compound as (compound/Negative Control)*100.
The values of EC150 from the dose response curve are determined for each test compound. The EC150 is the compound concentration at which 150% activity of control (100%) is reached.

melting point | SMILES | EC (150% of control) [1]
222 °C | Cc1c(C(N)=O)n(C)c2c(-c3ccc(C(F)(F)F)cc3)cc(F)cc12 [Example 51, 5-Fluoro-1,3-dimethyl-7-[4-(trifluoromethyl)-phenyl]-indole-2-carboxamide] | 0.13 µM
186 °C | Cc1c(C(N)=O)n(C)c2c(-c3ccc(F)c(F)c3)cc(F)cc12 [Example 52, 7-(3,4-Difluorophenyl)-5-fluoro-1,3-dimethylindole-2-carboxamide] | 0.7 µM
230 °C | Cc1c(C(N)=O)[nH]c2c(-c3ccc(C#N)cc3)cc(F)cc12 [Example 53, 7-(4-Cyanophenyl)-5-fluoro-3-methyl-1H-indole-2-carboxamide] | 0.04 µM
108 °C | Cc1c(C(N)=O)[nH]c2c(-c3ccc(OC(F)(F)F)cc3)cc(F)cc12 [Example 54, 5-Fluoro-3-methyl-7-[4-(trifluoromethoxy)phenyl]-1H-indole-2-carboxamide] | 0.2 µM
200 °C | Cc1c(C(N)=O)[nH]c2c(-c3ccc(F)cc3F)cc(F)cc12 [Example 55, 7-(2,4-Difluorophenyl)-5-fluoro-3-methyl-1H-indole-2-carboxamide] | 0.026 µM
198 °C | Cc1c(C(N)=O)[nH]c2c(-c3ccc(Cl)cc3Cl)cc(F)cc12 [Example 56, 7-(2,4-Dichlorophenyl)-5-fluoro-3-methyl-1H-indole-2-carboxamide] | 0.027 µM
286.5 °C | N#Cc1cc(-c2ccc(Cl)cc2F)c2[nH]c(C(N)=O)cc2c1 [Example 57, 7-(4-Chloro-2-fluorophenyl)-5-cyano-1H-indole-2-carboxamide] | 0.066 µM
192 °C | Cn1c(C(N)=O)cc2cc(C#N)cc(-c3ccc(Cl)cc3F)c21 [Example 58, 7-(4-Chloro-2-fluorophenyl)-5-cyano-1-methylindole-2-carboxamide] | 1.67 µM
245 °C | Cc1c(C(N)=O)n(C)c2c(-c3ccc(C#N)cc3)cc(F)cc12 [Example 59, 7-(4-Cyanophenyl)-5-fluoro-1,3-dimethylindole-2-carboxamide] | 0.083 µM
171 °C | Cc1c(C(N)=O)n(C)c2c(-c3ccc(OC(F)(F)F)cc3)cc(F)cc12 [Example 60, 5-Fluoro-1,3-dimethyl-7-[4-(trifluoromethoxy)phenyl]indole-2-carboxamide] | 0.22 µM
169 °C | Cc1c(C(N)=O)n(C)c2c(-c3ccc(Cl)cc3Cl)cc(F)cc12 [Example 61, 7-(2,4-Dichlorophenyl)-5-fluoro-1,3-dimethylindole-2-carboxamide] | 0.21 µM
206.5 °C | Cn1c(C(N)=O)cc2cc(C#N)cc(-c3ccc(F)cc3F)c21 [Example 62, 5-Cyano-7-(2,4-difluorophenyl)-1-methylindole-2-carboxamide] | 0.12 µM
222.5 °C | Cn1c(C(N)=O)cc2cc(C#N)cc(-c3ccc(Cl)cc3Cl)c21 [Example 63, 5-Cyano-7-(2,4-dichlorophenyl)-1-methylindole-2-carboxamide] | 0.21 µM
192 °C | Cc1c(C(N)=O)n(C)c2c(-c3ccc(F)cc3F)cc(F)cc12 [Example 64, 7-(2,4-Difluorophenyl)-5-fluoro-1,3-dimethylindole-2-carboxamide] | 0.091 µM
247 °C | Cc1cc(-c2cc(C#N)cc3cc(C(N)=O)[nH]c23)ccc1F [Example 66, 5-Cyano-7-(4-fluoro-3-methylphenyl)-1H-indole-2-carboxamide] | 0.62 µM
236 °C | Cn1c(C(N)=O)cc2cc(C#N)cc(-c3ccc([N+](=O)[O-])cc3)c21 [Example 67, 5-Cyano-1-methyl-7-(4-nitrophenyl)-indole-2-carboxamide] | 2.05 µM
269 °C | N#Cc1cc(-c2ccc([N+](=O)[O-])cc2)c2[nH]c(C(N)=O)cc2c1 [Example 68, 5-Cyano-7-(4-nitrophenyl)-1H-indole-2-carboxamide] | 0.071 µM
297 °C | N#Cc1cc(-c2ccnc(Cl)c2)c2[nH]c(C(N)=O)cc2c1 [Example 70, 7-(2-Chloropyridin-4-yl)-5-cyano-1H-indole-2-carboxamide] | 0.14 µM
206.5 °C | COc1ccc(-c2cc(C#N)cc3cc(C(N)=O)n(C)c23)cc1 [Example 71, 5-Cyano-7-(4-methoxyphenyl)-1-methylindole-2-carboxamide] | 0.21 µM
255 °C | COc1ccc(-c2cc(C#N)cc3cc(C(N)=O)[nH]c23)cc1 [Example 72, 5-Cyano-7-(4-methoxyphenyl)-1H-indole-2-carboxamide] | 0.19 µM
176 °C | Cn1c(C(N)=O)cc2cc(C#N)cc(-c3ccc(OC(F)(F)F)cc3)c21 [Example 73, 5-Cyano-1-methyl-7-[4-(trifluoromethoxy)phenyl]indole-2-carboxamide] | 7.5 µM
192 °C | Cc1ccc(-c2cc(F)cc3c(C)c(C(N)=O)[nH]c23)cc1 [Example 74, 5-Fluoro-3-methyl-7-(4-methylphenyl)-1H-indole-2-carboxamide] | 0.17 µM
209 °C | Cc1c(C(N)=O)[nH]c2c(-c3ccc(F)c(F)c3F)cc(F)cc12 [Example 75, 5-Fluoro-3-methyl-7-(2,3,4-trifluorophenyl)-1H-indole-2-carboxamide] | 0.082 µM
217 °C | COc1ccc(-c2cc(F)cc3c(C)c(C(N)=O)[nH]c23)cc1 [Example 76, 5-Fluoro-7-(4-methoxyphenyl)-3-methyl-1H-indole-2-carboxamide] | 0.009 µM
216 °C | Cc1c(C(N)=O)[nH]c2c(-c3ccc(Cl)cc3F)cc(F)cc12 [Example 77, 7-(4-Chloro-2-fluorophenyl)-5-fluoro-3-methyl-1H-indole-2-carboxamide] | 0.022 µM
270 °C | Cc1c(C(N)=O)[nH]c2c(-c3ccncc3)cc(F)cc12 [Example 78, 5-Fluoro-3-methyl-7-pyridin-4-yl-1H-indole-2-carboxamide] | 0.053 µM
